Data taken from patent publication US20250090565A1, “Compositions and Methods for Treating Bleeding and Bleeding Disorders” (YewSavin, Inc., priority 2021, published 2025).
“Also recorded” adds a separate entry of the source. Blank lines part the entries; values can stand above or below the molecule they belong to.

Assays:
[1] = test system: FVIII-deficient plasma; assay: Thrombin generation assay (TGA) in FVIII-deficient plasma; type: biochemical, human; conditions: for thrombin generation ETP dependence on concentration: 0.01 mg/ml, 0.1 mg/ml, and 0.4 mg/ml in FVIII-deficient plasma
Source text: Thrombin generation is regarded as a significant indicator of the efficiency of blood clotting. Therefore, the thrombin generation assay (“TGA”) can be used as a proxy to estimate overall blood clotting efficiency of factor proteins and others agents from observing the clotting of plasma samples. The thrombin generation experiments were run using a microtiter plate fluorometer. Solvent systems consisting of a buffer, a fluorogenic substrate, and eight candidate compounds in inert solvents were added to pre-warmed citrated FVIII-deficient plasma along with tissue factor. The clotting reactions in the plasma-compound mixtures were initiated by adding calcium chloride solution to all the samples, and the fluorescence measurements recorded by the fluorimeter were compared against negative control (FVIII-deficient plasma without compounds or solvent system), vehicle control (FVIII-deficient plasma with solvent system only), and positive control (FVIII-deficient plasma mixed with regular plasma) reference measurements.
Each of the eight candidate compounds was tested via the TGA at three different concentrations.

[2] = test system: ex vivo Hemophilia A human blood; assay: Ca+2ACT whole blood coagulation time test, Hemophilia A human blood; type: biochemical; conditions: for mean clotting time: Hemophilia A blood specimens
Source text: (§1) While there are standardized tests such as Activated Partial Thromboplastin Time (“aPTT”) and Partial Thromboplastin Time (“PPT”) that measure blood clotting times (i.e., coagulation times), none of these tests are amenable to testing a small molecule drug, mainly due to the fact that the clotting agents added in these tests completely overcome the effect of the drug. A Calcium +2 ion Activated Coagulation Time test (“Ca+2ACT test”) was developed for measuring coagulation times that is devoid of the activators, thereby allowing drug candidates to be tested and verify their effects. The results described below use whole blood clotting assay and measure the coagulation of blood (i.e., blood's ability to clot), specifically, how much time is required for the clotting.
In this study, calcium chloride (“CaCl2”), a standard coagulating compound, is used as a control to compare the efficacy of various test samples. DMA is used as vehicle for various test samples. In a first study, a freshly prepared 5 μl test sample in DMA is added to a 100 μl blood specimen and then incubated in incubation slot of KC1 Delta machine Correlated Stago-Startmax for 37° C. for 3 min. For the control sample, 50 μl of CaCl2 solution is added, and timer started, to a 100 μl blood specimen to provide a baseline against the test sample. A stop watch, and automated electronic machine display, is used to measure the coagulation time in connection with an electronic signal provided the testing machine. Fresh citrated blood specimen from six healthy volunteers and six hemophilia patients, with initial standard citrate concentration in the collected blood of 3.5%, and “in cuvette” calcium +2 activation (by addition of CaCl2 solution) was obtained.
In this study, the effect of drug is measured by coagulation time of blood using the Ca+2ACT test, in presence of variable concentration of the drug in the test sample. The efficacy tests used 5 microliter of 40 mg/mL solution added to 155 microliter final volume in the clotting cuvette, corresponding to […] of the clotting mixture. For the dose dependence studies, we examined three persons. The twelve concentrations range chosen is 5 microliter of 0.05 mg/mL to 40 mg/mL, the vehicle being zero point concentration. This corresponds to mimimum concentration in the study of 1.66 microgram/mL or 1.66 ppm of the drug, not withstanding Vehicle Control of zero. […] FIG. 45 illustrates coagulation time versus concentration for the candidate molecule 1 for blood specimens from a second patient. FIG. 46 illustrates coagulation time versus concentration for the candidate molecule 1 for blood specimens from a third patient.
As discussed above, the effect is measured by coagulation time of blood using the Ca+2ACT test, in presence of variable concentration of the drug. Initial efficacy tests used 5 microliters of 40 mg/mL solution added to 155 microliter final volume in the clotting cuvette, corresponding to 1.29 mg/1000 mg of the clotting mixture. More recent tests used 10E-2 to 10E-22 as concentration range with 1E-2 interval. Samples were tested no later than eight hours after collection, and preferably, no later than four hours after collection. Often times, with very low and zero concentrations of clotting agents, although the instrument recorded a clotting time, the samples were fluid and partially coagulated at best. However, good fit was obtained at 1E-18 and good statistical difference was obtained at 1E-16, with significant statistical p-values at 10E-8 and higher concentrations, a very good range for drug design. […] The dose dependence study was performed using NDA solvent, and water in case of Eloctate™.

[3] = test system: ex vivo healthy human blood; assay: Ca+2ACT whole blood coagulation time test, healthy human blood; type: biochemical; conditions: 1 mg/ml, healthy blood specimens; vehicle control 208.87 seconds
Source text: as §1
In this study, calcium chloride (“CaCl2”), a standard coagulating compound, is used as a control to compare the efficacy of various test samples. DMA is used as vehicle for various test samples. In a first study, a freshly prepared 5 μl test sample in DMA is added to a 100 μl blood specimen and then incubated in incubation slot of KC1 Delta machine Correlated Stago-Startmax for 37° C. for 3 min. For the control sample, 50 μl of CaCl2 solution is added, and timer started, to a 100 μl blood specimen to provide a baseline against the test sample. […]

[4] = test system: Factor VIII Deficient Mice; assay: Fibrin (fibrinogen) content of blood of Factor VIII deficient mice; type: in vivo; conditions: FVIII deficient mice, blood taken at end of experiment
Method: (§2) The purpose of this experiment was to evaluate the effectiveness of chalcones on tail bleeding time in mice. […] A distal 10 mm segment of each mouse's tail was amputated with a scalpel and the remaining tail stump was immediately immersed in a 50 mL Falcon tube containing isotonic saline pre-warmed in a water bath to 37° C. Each mouse was allowed to bleed freely for 20 minutes even if bleeding ceased, in order to detect any re-bleeding. Bleeding time was determined using a stopwatch. At the end of the 20 minutes, the experiment was terminated to avoid lethality. All animals were then bled additionally to obtain a sufficient amount of blood for determining fibrinogen content. Organs were collected, weighed and preserved for future assays.

[5] = test system: Factor VIII Deficient Mice; assay: Capillary clotting time in Factor VIII deficient mice; type: in vivo; conditions: FVIII deficient mice; HF-2021a oral once daily for seven days; FVIII intravenous
[6] = test system: Wistar rats; assay: Ex vivo capillary clotting assay in Wistar rats; conditions: ex vivo oral, compared with chromatography fractions (FIG. 3)
Source text: During the bioassay-guided fractionation process, blood clotting time was used as a screen for active compounds, and a particular class of compounds known as chalcones was discovered to induce blood coagulation. FIG. 3 illustrates a sample result from an ex vivo capillary clotting assay in Wistar rats in accordance with various embodiments of the invention as described in further detail below.

[7] = test system: normal plasma; assay: Thrombin generation assay (TGA) in normal plasma; type: biochemical, human
[8] = test system: heparinized rabbit blood; assay: Heparinized clotting test (in vitro); type: biochemical
Method: The purpose of this experiment was to deduce a potential mechanism of action for chalcones in decreasing blood clotting and bleeding time. First, rabbit blood (200 μL) was added to the anticoagulant drug heparin (1.25 IU) in Eppendorf Tubes®. […] In untreated blood that is still inside a human or an animal, heparan sulfate that is found on cellular surfaces plays an equivalent role to heparin by forming a heparan-antithrombin complex and activating antithrombin.

[9] = Bodyweight of Factor VIII deficient mice; type: in vivo; conditions: FVIII deficient mice, mean (spread)
[10] = test system: Factor VIII Deficient Mice; assay: Tail bleeding assay in FVIII-KO mice; type: in vivo
Method: as §2

Molecule: O=C(/C=C/c1ccc(O)cc1)c1ccc(O)cc1O [HF-2021c, (E)-1-(2,4-dihydroxyphenyl)-3-(4-hydroxyphenyl)prop-2-en-1-one]
- thrombin generation ETP dependence on concentration [1]: observed dose dependence

Molecule: COc1ccc(/C=C/C(=O)c2c(O)cc(O[C@@H]3O[C@H](CO[C@@H]4O[C@@H](C)[C@H](O)[C@@H](O)[C@H]4O)[C@@H](O)[C@H](O)[C@H]3O)cc2OC)cc1O [HF-2021d, (E)-3-(3-hydroxy-4-methoxyphenyl)-1-[2-hydroxy-6-methoxy-4-[(2S,3R,4S,5S,6R)-3,4,5-trihydroxy-6-[[(2R,3R,4R,5R,6S) -3,4,5-trihydroxy-6-methyloxan-2-yl]oxymethyl]oxan-2-yl]oxyphenyl]prop-2-en-1-one]
- thrombin generation ETP dependence on concentration [1]: observed dose dependence

Molecule: O=C(C=Cc1ccc2c(c1)OCO2)c1ccccc1 [HF-2022a, 3-(1,3-Benzodioxol-5-yl)-1-phenyl-2-propen-1-one]
- thrombin generation ETP dependence on concentration [1]: observed dose dependence

Molecule: O=C(/C=C/c1ccc(O)cc1)c1c(O)cc(O)cc1O [HF-2021g, (E)-3-(4-hydroxyphenyl)-1-(2,4,6-trihydroxyphenyl)prop-2-en-1-one]
- thrombin generation ETP dependence on concentration [1]: observed dose dependence

- EC50 compared with Eloctate ([2]; concentration for 50% of the total effect on coagulation time (FIG. 43)): lower than for Eloctate™
Molecule: CC(C)=CCOc1ccc(/C=C/C(=O)c2ccc(OCC=C(C)C)cc2OCC(=O)O)cc1 [HF-2021e, 2-[5-(3-methylbut-2-enoxy)-2-[(E)-3-[4-(3-methylbut-2-enoxy)phenyl]prop-2-enoyl]phenoxy]acetic acid]
- thrombin generation ETP dependence on concentration [1]: observed dose dependence
- thrombin concentration and ETP, combined dosing with HEMLIBRA ([1]; 0.1 mg/mL combined with 25, 50, 75 μg/ml HEMLIBRA, versus each drug alone (FIG. 32, 33)): greater thrombin concentrations and ETPs than any individual dosage
- thrombin concentration and ETP, combined dosing with HEMLIBRA ([1]; 0.1 mg/ml + 25 μg/ml HEMLIBRA versus 75 μg/ml HEMLIBRA alone): slightly more thrombin concentration and ETP
- possible cut of the required dose of HEMLIBRA on concurrent use ([1]; 0.1 mg/ml + 25 μg/ml HEMLIBRA, roughly same thrombin generation as 75 μg/ml): 67%
- effect on thrombin concentration and ETP compared with HEMLIBRA ([1]; 0.4 mg/ml versus lowest tested HEMLIBRA concentration 25 μg/ml (FIG. 30, 31)): slightly lower effect
- mean clotting time ([2]; 0.1 mg/mL, vehicle control 247.61 seconds): 118.92 s
- coagulation times compared with Eloctate ([2]; HF2021e in NDA, Eloctate in water (FIG. 43)): higher than the coagulation times for Eloctate™
- coagulation time dependence on dose ([2]; dose dependence study in NDA solvent (FIG. 43)): linear coagulation time dependence

Molecule: COc1cc(O)c(C(=O)C=Cc2ccc(O)cc2)c(OC)c1OC [HF-2021a, 1-(6-Hydroxy-2,3,4-trimethoxyphenyl)-3-(4-hydroxy-phenyl)prop-2-en-1-one]
- mean clotting time [3]: 74.12 s
- Fibrin content (mg/dL) [4]: 281.2 (44.1) mg/dL
- Capillary Clotting Time (Seconds) [5]: 44.6 (13.2) Seconds
- effect on capillary clotting time [6]: nearly identical to that of the chromatography fractions
- thrombin generation curves versus concentration ([7]; normal plasma (FIG. 20)): dose dependent response
- thrombin generation ETP versus concentration ([7]; normal plasma (FIG. 21)): dose dependent response is also observed
- blood clotting time versus concentration ([8]; rabbit blood 200 μL + heparin 1.25 IU, varying concentrations in DMSO (FIG. 7)): dose dependence relationship was observed
- Bodyweight (Day 0) ([9]; Day 0 (baseline)): 17.4 (1.4)
- Bodyweight (Day 7) ([9]; Day 7): 18.8 (1.1)
- thrombin generation ETP dependence on concentration [1]: observed dose dependence
- effect on thrombin concentration and ETP compared with HEMLIBRA ([1]; 0.1 mg/ml versus any of the concentrations of HEMLIBRA (FIG. 28, 29)): comparable effects
- thrombin response compared with FVIII-deficient plasma containing 10% of normal FVIII ([1]; 0.4 mg/ml (FIG. 18, 19)): superior to that of 10% of normal FVIII activity
- effect on thrombin concentration and ETP compared with HEMLIBRA ([1]; 0.4 mg/ml versus highest tested HEMLIBRA concentration 75 μg/ml (FIG. 28, 29)): slightly larger effect
- thrombin concentration and ETP, combined with ELOCTATE ([1]; all tested concentrations, plasma of a patient who had taken ELOCTATE (FIG. 34, 35)): greater thrombin concentrations and ETPs than ELOCTATE® by itself
- mean clotting time ([2]; 1 mg/mL, vehicle control 228.92 seconds): 64.92 s
- coagulation time versus concentration ([2]; blood specimens of three patients, twelve concentrations (FIG. 44-46)): clear dependency
- Optical Density ([10]; FVIII deficient mice, tail bleeding experiment): 0.5 (0.1)
- tail bleeding time (in words) ([10]; FVIII-KO mice, repeated oral administrations, versus standard FVIII therapy (FIG. 4)): outperforming the standard FVIII therapy; also recorded: significantly improved
- Survival Rate ([10]; after 48 hours): 3/5 after
- Bleeding Time (Seconds) ([10]; tail amputation 10 mm, saline 37° C., HF-2021a oral once daily for seven days, FVIII intravenous): 41.8 (9.7) Seconds

Molecule: 4-methoxyphenyl-3-(2,4-dimethoxyphenyl)-1-oxo-2-propene [HF-2021f]
- thrombin generation ETP dependence on concentration [1]: observed dose dependence

Molecule: COc1ccc(C=CC(=O)c2c(O)cc(O)cc2O)cc1 [ISK-CH, Iso-Sakutanetin Chalcone]
- mean clotting time ([2]; 1×10^−7 mg/mL, vehicle control 200.87 seconds): 116.4 s

Molecule: COc1ccc(C=CC(=O)c2c(O)cc(OC)cc2OC)cc1 [HF-2021b, 1-(2-hydroxy-4,6-dimethoxyphenyl)-3-(4-methoxyphenyl)prop-2-en-1-one]
- activity in the heparinized blood assay ([8]; heparinized blood): active blood clotting agent
- thrombin generation ETP dependence on concentration [1]: observed dose dependence
